Data reported in article PMC12307812 (Nature Communications, 2025).
Read-outs that look alike come from different tables or passages of the source.

Tests used:
[1] = target: T1, Recombinant Human TMPRSS2 (Homo sapiens, UniProt O15393); test: TMPRSS2 biochemical assay (Boc-Gln-Ala-Arg-AMC fluorogenic substrate)
T1 construct: human TMPRSS2 residues 106492, N-terminal 6x His-tag; 6x His-tag (N); purchased Cusabio CSB-YP023924HU; host or cells: yeast
Method: Inhibitors of TMPRSS2 were tested using a high throughput activity assay. […] TMPRSS2 (5 µl, 0.018 mg/ml) in assay buffer (50 mM Tris pH 8, 150 mM NaCl, 0.01% Tween20) was dispensed to that, using a BioRAPTR (Beckman Coulter), for a total assay volume of 5 µl.
After incubation at room temperature for 1 h, fluorescence was measured. […] Raw plate reads for each titration point were normalized relative to a positive control containing no enzyme (0% activity, full inhibition) and a negative control containing DMSO-only wells (100% activity, basal activity). Data normalization was performed using GraphPad Prism (GraphPad Software, San Diego, CA).
We employed the curve fitting algorithm available in the SciPy package (version 1.10.1)[61] to derive the Hill slope and the IC50 value, along with their corresponding error estimates.

[2] = tested on: pseudovirus bearing S protein of SARS-CoV-2 lineage B.1; test: organism not typed; assay type: cell-based
[3] = tested on: pseudovirus bearing S protein of SARS-CoV-2 lineage B.1.617.2; test: organism not typed; assay type: cell-based
[4] = tested on: pseudovirus bearing S protein of SARS-CoV-2 lineage EG.5.1; test: organism not typed; assay type: cell-based
[5] = tested on: pseudovirus bearing S protein of SARS-CoV-2 lineage BA.2.86; test: organism not typed; assay type: cell-based
[6] = tested on: pseudovirus bearing S protein of HCoV-229E; test: organism not typed; assay type: cell-based
[7] = tested on: pseudovirus bearing S protein of SARS-CoV-1; test: organism not typed; assay type: cell-based
[8] = tested on: pseudovirus bearing S protein of MERS-CoV; test: organism not typed; assay type: cell-based
[9] = tested on: pseudovirus bearing VSV-G; test: organism not typed; assay type: cell-based; details: Calu-3
[10] = Calu-3, read-out: mean inhibition

T1 sequence (O15393 106-492 limits assumed): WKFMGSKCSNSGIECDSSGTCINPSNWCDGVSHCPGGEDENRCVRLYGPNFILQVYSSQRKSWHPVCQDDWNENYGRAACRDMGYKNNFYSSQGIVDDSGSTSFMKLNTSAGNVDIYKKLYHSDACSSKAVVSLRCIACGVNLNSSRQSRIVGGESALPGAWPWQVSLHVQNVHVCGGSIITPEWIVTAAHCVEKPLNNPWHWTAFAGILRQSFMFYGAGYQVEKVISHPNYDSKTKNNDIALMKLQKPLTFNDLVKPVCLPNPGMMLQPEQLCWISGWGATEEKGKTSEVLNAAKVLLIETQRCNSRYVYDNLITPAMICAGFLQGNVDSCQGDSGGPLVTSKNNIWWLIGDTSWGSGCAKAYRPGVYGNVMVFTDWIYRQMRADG

Structure (SMILES): CC(C)(C)NC(=O)N1CCN(C(=O)N2C(=O)C(CCCNC(=N)N)C2C(=O)O)CC1 (centres unmarked) [BMS-262084]
- inhibition at 75.27 pM ([1]; concentration 0.0752671 nM): 1.73%
- inhibition at 0.000225801 µM ([1]; concentration 0.225801 nM): 16.6%
- inhibition at 0.000677404 µM ([1]; concentration 0.677404 nM): 22.3%
- inhibition at 0.00203221 µM ([1]; concentration 2.03221 nM): 54.4%
- inhibition at 0.00609663 µM ([1]; concentration 6.09663 nM): 77.8%
- inhibition at 0.0182899 µM ([1]; concentration 18.2899 nM): 91.4%
- inhibition at 0.0548697 µM ([1]; concentration 54.8697 nM): 94.8%
- inhibition at 0.164609 µM ([1]; concentration 164.609 nM): 99.3%
- inhibition at 0.493827 µM ([1]; concentration 493.827 nM): 97.2%
- inhibition at 1.48148 µM ([1]; concentration 1481.48 nM): 99%
- inhibition at 4.44444 µM ([1]; concentration 4444.44 nM): 98%
- inhibition at 13.3333 µM ([1]; concentration 13333.3 nM): 98.8%
- inhibition at 40 µM ([1]; concentration 40000 nM): 93.2%
- IC50 ([1]; read-out: IC50, inhibition in TMPRSS2 biochemical assay): 0.00182 µM
- inhibition at 0.00025 µM ([2]; Calu-3, B.1, concentration 0.25 nM): 7.25%
- inhibition at 0.0025 µM ([2]; Calu-3, B.1, concentration 2.5 nM): 11.1%
- inhibition at 0.025 µM ([2]; Calu-3, B.1, concentration 25 nM): 52.1%
- inhibition at 0.25 µM ([2]; Calu-3, B.1, concentration 250 nM): 86.2%
- inhibition at 2.5 µM ([2]; Calu-3, B.1, concentration 2500 nM): 92.8%
- inhibition at 25 µM ([2]; Calu-3, B.1, concentration 25000 nM): 93.3%
- IC50 ([2]; Calu-3 cells, read-out: IC50, pseudovirus cell entry B.1): 0.0245 µM
- inhibition at 0.00025 µM ([3]; Calu-3, B.1.617.2, concentration 0.25 nM): -3.95%
- inhibition at 0.0025 µM ([3]; Calu-3, B.1.617.2, concentration 2.5 nM): 6%
- inhibition at 0.025 µM ([3]; Calu-3, B.1.617.2, concentration 25 nM): 32.3%
- inhibition at 0.25 µM ([3]; Calu-3, B.1.617.2, concentration 250 nM): 82.7%
- inhibition at 2.5 µM ([3]; Calu-3, B.1.617.2, concentration 2500 nM): 96.1%
- inhibition at 25 µM ([3]; Calu-3, B.1.617.2, concentration 25000 nM): 96.1%
- IC50 ([3]; Calu-3 cells, read-out: IC50, pseudovirus cell entry B.1.617.2): 0.0525 µM
- inhibition at 0.00025 µM ([4]; Calu-3, EG.5.1, concentration 0.25 nM): 10.3%
- inhibition at 0.0025 µM ([4]; Calu-3, EG.5.1, concentration 2.5 nM): 16.8%
- inhibition at 0.025 µM ([4]; Calu-3, EG.5.1, concentration 25 nM): 26.9%
- inhibition at 0.25 µM ([4]; Calu-3, EG.5.1, concentration 250 nM): 51.3%
- inhibition at 2.5 µM ([4]; Calu-3, EG.5.1, concentration 2500 nM): 58.1%
- inhibition at 25 µM ([4]; Calu-3, EG.5.1, concentration 25000 nM): 57.8%
- fold less efficient inhibition of EG.5.1-S entry compared to B.1-S, B.1.617.2-S or BA.2.86-S ([4]; Calu-3 cells): 20–50 fold
- IC50 ([4]; Calu-3 cells, Fig. 4g, read-out: IC50 estimate, pseudovirus cell entry EG.5.1): 1.2 ± 0.763 µM
- IC50 ([4]; Calu-3 cells, read-out: IC50, EG.5.1-S protein-driven Calu-3 cell entry): 1.2 µM
- inhibition at 0.00025 µM ([5]; Calu-3, BA.2.86, concentration 0.25 nM): 2.76%
- inhibition at 0.0025 µM ([5]; Calu-3, BA.2.86, concentration 2.5 nM): 1.45%
- inhibition at 0.025 µM ([5]; Calu-3, BA.2.86, concentration 25 nM): 44.5%
- inhibition at 0.25 µM ([5]; Calu-3, BA.2.86, concentration 250 nM): 74.7%
- inhibition at 2.5 µM ([5]; Calu-3, BA.2.86, concentration 2500 nM): 89.7%
- inhibition at 25 µM ([5]; Calu-3, BA.2.86, concentration 25000 nM): 98.9%
- IC50 ([5]; Calu-3 cells, read-out: IC50, pseudovirus cell entry BA.2.86): 0.0482 µM
- IC50 ([6]; Calu-3, read-out: IC50 estimate, pseudovirus cell entry 229E-S): 0.99 ± 0.209 µM
- inhibition at 0.00025 µM [6, 10]: 0.992%
- inhibition at 0.0025 µM [6, 10]: 8.96%
- inhibition at 0.025 µM [6, 10]: 22%
- inhibition at 0.25 µM [6, 10]: 42.2%
- inhibition at 2.5 µM [6, 10]: 58.4%
- inhibition at 25 µM [6, 10]: 72.2%
- IC50 ([7]; Calu-3, read-out: IC50 estimate, pseudovirus cell entry SARS-1-S): 0.082 ± 0.0231 µM
- inhibition at 0.00025 µM ([7]; Calu-3, concentration 0.25 nM): 3.34%
- inhibition at 0.0025 µM ([7]; Calu-3, concentration 2.5 nM): 5.92%
- inhibition at 0.025 µM ([7]; Calu-3, concentration 25 nM): 31.7%
- inhibition at 0.25 µM ([7]; Calu-3, concentration 250 nM): 73.6%
- inhibition at 2.5 µM ([7]; Calu-3, concentration 2500 nM): 80.6%
- inhibition at 25 µM ([7]; Calu-3, concentration 25000 nM): 91.7%
- IC50 ([8]; Calu-3, read-out: IC50 estimate, pseudovirus cell entry MERS-S): 0.101 ± 0.0242 µM
- inhibition at 0.00025 µM ([8]; Calu-3, concentration 0.25 nM): 0.787%
- inhibition at 0.0025 µM ([8]; Calu-3, concentration 2.5 nM): -4.71%
- inhibition at 0.025 µM ([8]; Calu-3, concentration 25 nM): 29.1%
- inhibition at 0.25 µM ([8]; Calu-3, concentration 250 nM): 67.2%
- inhibition at 2.5 µM ([8]; Calu-3, concentration 2500 nM): 89.3%
- inhibition at 25 µM ([8]; Calu-3, concentration 25000 nM): 93%
- inhibition at 0.00025 µM ([9]; concentration 0.25 nM): 2.19%
- inhibition at 0.0025 µM ([9]; concentration 2.5 nM): 1.17%
- inhibition at 0.025 µM ([9]; concentration 25 nM): 1.08%
- inhibition at 0.25 µM ([9]; concentration 250 nM): 0.456%
- inhibition at 2.5 µM ([9]; concentration 2500 nM): 0.565%
- inhibition at 25 µM ([9]; concentration 25000 nM): -2.28%
